According to paper PMC5589751, “Synthesis, high-throughput screening and pharmacological characterization of β–lactam derivatives as TRPM8 antagonists” (Scientific Reports, 2017):

What was measured:
Assay type in all cases: cell-based
[1] = target: NaV1.6 (Homo sapiens, UniProt Q9UQD0); assay: Whole-cell patch clamp in cells expressing NaV1.6
Method: (§1) Electrophysiological recording was carried out 1–3 d after cells seeded. Membrane currents and voltages were recorded by patch clamp using the whole-cell configuration. For whole-cell recordings of HEK-hTRPV1 and HEK-TRPM8 cells, pipette solution contained (in mM) 140 CsCl, 5 EGTA, and 10 HEPES, adjusted to pH 7.2 with CsOH, and bath solution contained (in mM) 140 NaCl, 5 KCl, 2 CaCl2, 2 MgCl2, 5 EGTA, 10 D-glucose, 10 Mannitol and 10 HEPES, adjusted to pH 7.4 with NaOH. In calcium-free bath solution, CaCl2 was replaced with 5mM EGTA. For potassium and sodium recordings, CsCl was substituted by KCl and the pH was adjusted to pH 7.2 with KOH. Patch pipettes were prepared from thin-walled borosilicate glass capillaries (World Precision Instruments, Sarasota, FL, USA), pulled with a horizontal puller (P-97, Sutter Instruments, Novato, CA, USA) to have a tip resistance of 2–4 MΩ when filled with internal solutions. Data were sampled at 10 kHz (EPC10 amplifier with PatchMaster 2.53 software, HEKA Electronics, Lambrecht, Germany) and low-pass filtered at 3 kHz for analysis (PatchMaster 2.53 and GraphPad Prism 5, Graphpad Software, USA). The series resistance was <10 MΩ and to minimize voltage errors was compensated to 60–80%. All measurements were performed at 24–25°C. […]

[2] = target: Kv1.1 (Homo sapiens, UniProt Q09470); assay: Whole-cell patch clamp in cells expressing Kv1.1
Method: as §1

[3] = target: T1, TRPM8 (Rattus norvegicus, UniProt Q8R455); assay: Ca2+ microfluorography (Fluo-4 NW), menthol-induced Ca2+ signal in HEK-CR1-TRPM8 cells; conditions: for % Block TRPM8 50 µM: 50 µM compound; for % Block TRPM8 50 µM / IC50: agonist 100 µM menthol, HEK-CR1-TRPM8 cells
T1 construct: expressed in transfected cells
Method: (§2) All compounds were tested at two different concentrations (50 and 5 µM) on TRPM8 and TRPV1 channels stably expressed in HEK and SH-SY5Y cell lines, respectively. The agonist induced intracellular Ca^2+ signals were measured using a fluorescent Ca^2+ indicator, in the absence and in the presence of test compounds. […] The obtained results were compared to those of 68 (AMTB, TRPM8 antagonist) and ruthenium red (TRPV1 antagonist). The IC50 values for the assay on TRPM8 were also calculated.
(§3) For fluorescence assays, cells expressing TRP channels (SH-SY5Y-TRPV1 and HEKCR1-TRPM8) were seeded in 96-well plates (Corning Incorporated, Corning, NY) at a cell density of 40,000 cells 2 days before treatment. The day of treatment the medium was replaced with 100 µL of the dye loading solution Fluo-4 NW supplemented with probenecid 2.5 mM. Then the compounds dissolved in DMSO were added at the desired concentrations and the plate(s) were incubated at 37 °C in a humidified atmosphere of 5% CO2 for 60 minutes.
(§4) The fluorescence was measured using instrument settings appropriate for excitation at 485 nm and emission at 535 nm (POLARstar Omega BMG LABtech). […] The corresponding antagonist
(§5) (10 µM Ruthenium Red forTRPV1 and 10 µM 68 for TRPM8) was added for the blockade. The changes in fluorescence intensity were recorded during 15 cycles more. […] The blocking percentage was calculated as follow (Eq. 1):1 %TRPBlockedResponse=(1−Fo−Fi/FCo−FCi)∗100 where Fo is the fluorescence after the addition of menthol in the presence of the compound, Fi is the fluorescence before the addition of menthol in the presence of the compound, FCo is the fluorescence after the addition of menthol in the absence of the compound, FCi is the fluorescence before the addition of menthol in the absence of the compound. To guarantee that our results were useful we only used assays with a Z-factor higher than 0.5.
(§6) The statistical Z-factor to determine the quality of the HTS experiment as was calculated using the equation 2:2 Z‐factor=1−3∗(SDmax+SDmin)/Meanmax−Meanmin where: Meanmax is the mean of the maximum fluorescence in the presence of agonist, SDmax is the standard deviation of the maximum fluorescence in the presence of agonists, Meanmin is the mean of the maximum fluorescence in the presence of agonist and antagonist and SDmin is the standard deviation of the maximum fluorescence in the presence of agonist and antagonist.

[4] = target: TRPV1 (Rattus norvegicus, UniProt O35433); assay: Ca2+ microfluorography (Fluo-4 NW), capsaicin-induced Ca2+ signal in SH-SY5Y-TRPV1 cells; conditions: 50 µM compound; agonist 10 µM capsaicin; SH-SY5Y-TRPV1 cells
Method: as §2, §3, §4, §5, §6

[5] = tested on: HEK-CR1 cells; assay: MTT-based assay of cytotoxicity; conditions: 24 hours incubation; three concentrations
Method: Figure 2S. Effect of derivative 41 and 45 on MTT-based assay of cytotoxicity in HEK-CR1 cells.
A) Cell survival after 24 hours incubation at three concentrations of derivative 41 or B) derivative 45.
Each value is expressed as mean ± SEM. n ≥ 4, ANOVA with Bonferroni post hoc test (*** p < 0.001).
Cell viability assay (MTT)
Cell viability was assessed by the detection of mitochondrial activity in living cells using a modified colorimetric analysis of Blue Tetrazolium Bromide Thiazolyl (MTT). Briefly, HEK293 cells (2 × 10^4 cells/well) were subcultured in 96-well plates, grown until 80–90% confluence, and incubated with increasing concentrations of testing compounds for 24 h. Following treatment, 10 μL of MTT solution (5 mg/mL in phosphate buffered saline) was added to each well and further incubated for 4 h at 37 °C. Subsequently, 100 μL of DMSO was added to each well to dissolve any deposited formazan resulting from cleavage and reduction of MTT by active mitochondrial dehydrogenases. The optical density of each well was measured at 540 nm with a microplate reader (Polastar BMG LABTECH, […]
(1 picture or pasted object on this page, not shown here)

T1 sequence (Q8R455 whole entry): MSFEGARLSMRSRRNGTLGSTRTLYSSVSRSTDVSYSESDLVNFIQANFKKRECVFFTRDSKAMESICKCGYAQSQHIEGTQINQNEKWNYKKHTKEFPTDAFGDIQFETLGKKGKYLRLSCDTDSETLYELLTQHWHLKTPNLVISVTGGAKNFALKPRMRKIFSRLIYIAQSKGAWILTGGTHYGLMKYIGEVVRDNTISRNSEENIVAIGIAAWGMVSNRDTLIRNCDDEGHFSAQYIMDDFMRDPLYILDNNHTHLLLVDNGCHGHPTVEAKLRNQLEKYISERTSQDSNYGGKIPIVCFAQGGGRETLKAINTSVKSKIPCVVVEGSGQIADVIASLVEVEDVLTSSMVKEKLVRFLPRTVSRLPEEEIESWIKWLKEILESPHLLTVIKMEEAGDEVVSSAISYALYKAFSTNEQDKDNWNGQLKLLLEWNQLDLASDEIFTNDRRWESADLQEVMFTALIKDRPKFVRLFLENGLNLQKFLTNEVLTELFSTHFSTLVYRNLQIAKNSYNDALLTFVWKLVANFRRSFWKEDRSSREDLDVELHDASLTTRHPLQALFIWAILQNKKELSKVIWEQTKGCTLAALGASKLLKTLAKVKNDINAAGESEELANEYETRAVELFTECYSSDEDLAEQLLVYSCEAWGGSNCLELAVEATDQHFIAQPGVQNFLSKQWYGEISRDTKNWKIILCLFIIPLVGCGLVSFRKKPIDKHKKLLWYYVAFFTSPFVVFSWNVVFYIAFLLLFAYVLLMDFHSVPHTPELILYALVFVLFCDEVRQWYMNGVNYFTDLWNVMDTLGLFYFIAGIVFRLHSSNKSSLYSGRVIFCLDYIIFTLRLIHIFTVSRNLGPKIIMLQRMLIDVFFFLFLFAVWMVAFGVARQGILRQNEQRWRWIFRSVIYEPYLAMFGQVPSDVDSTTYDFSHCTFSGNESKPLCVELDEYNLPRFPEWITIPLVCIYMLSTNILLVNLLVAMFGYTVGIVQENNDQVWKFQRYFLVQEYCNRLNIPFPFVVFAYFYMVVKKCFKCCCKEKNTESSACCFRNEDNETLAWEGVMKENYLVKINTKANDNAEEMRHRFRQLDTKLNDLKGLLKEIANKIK
NaV1.6, sequence (Q9UQD0 whole entry): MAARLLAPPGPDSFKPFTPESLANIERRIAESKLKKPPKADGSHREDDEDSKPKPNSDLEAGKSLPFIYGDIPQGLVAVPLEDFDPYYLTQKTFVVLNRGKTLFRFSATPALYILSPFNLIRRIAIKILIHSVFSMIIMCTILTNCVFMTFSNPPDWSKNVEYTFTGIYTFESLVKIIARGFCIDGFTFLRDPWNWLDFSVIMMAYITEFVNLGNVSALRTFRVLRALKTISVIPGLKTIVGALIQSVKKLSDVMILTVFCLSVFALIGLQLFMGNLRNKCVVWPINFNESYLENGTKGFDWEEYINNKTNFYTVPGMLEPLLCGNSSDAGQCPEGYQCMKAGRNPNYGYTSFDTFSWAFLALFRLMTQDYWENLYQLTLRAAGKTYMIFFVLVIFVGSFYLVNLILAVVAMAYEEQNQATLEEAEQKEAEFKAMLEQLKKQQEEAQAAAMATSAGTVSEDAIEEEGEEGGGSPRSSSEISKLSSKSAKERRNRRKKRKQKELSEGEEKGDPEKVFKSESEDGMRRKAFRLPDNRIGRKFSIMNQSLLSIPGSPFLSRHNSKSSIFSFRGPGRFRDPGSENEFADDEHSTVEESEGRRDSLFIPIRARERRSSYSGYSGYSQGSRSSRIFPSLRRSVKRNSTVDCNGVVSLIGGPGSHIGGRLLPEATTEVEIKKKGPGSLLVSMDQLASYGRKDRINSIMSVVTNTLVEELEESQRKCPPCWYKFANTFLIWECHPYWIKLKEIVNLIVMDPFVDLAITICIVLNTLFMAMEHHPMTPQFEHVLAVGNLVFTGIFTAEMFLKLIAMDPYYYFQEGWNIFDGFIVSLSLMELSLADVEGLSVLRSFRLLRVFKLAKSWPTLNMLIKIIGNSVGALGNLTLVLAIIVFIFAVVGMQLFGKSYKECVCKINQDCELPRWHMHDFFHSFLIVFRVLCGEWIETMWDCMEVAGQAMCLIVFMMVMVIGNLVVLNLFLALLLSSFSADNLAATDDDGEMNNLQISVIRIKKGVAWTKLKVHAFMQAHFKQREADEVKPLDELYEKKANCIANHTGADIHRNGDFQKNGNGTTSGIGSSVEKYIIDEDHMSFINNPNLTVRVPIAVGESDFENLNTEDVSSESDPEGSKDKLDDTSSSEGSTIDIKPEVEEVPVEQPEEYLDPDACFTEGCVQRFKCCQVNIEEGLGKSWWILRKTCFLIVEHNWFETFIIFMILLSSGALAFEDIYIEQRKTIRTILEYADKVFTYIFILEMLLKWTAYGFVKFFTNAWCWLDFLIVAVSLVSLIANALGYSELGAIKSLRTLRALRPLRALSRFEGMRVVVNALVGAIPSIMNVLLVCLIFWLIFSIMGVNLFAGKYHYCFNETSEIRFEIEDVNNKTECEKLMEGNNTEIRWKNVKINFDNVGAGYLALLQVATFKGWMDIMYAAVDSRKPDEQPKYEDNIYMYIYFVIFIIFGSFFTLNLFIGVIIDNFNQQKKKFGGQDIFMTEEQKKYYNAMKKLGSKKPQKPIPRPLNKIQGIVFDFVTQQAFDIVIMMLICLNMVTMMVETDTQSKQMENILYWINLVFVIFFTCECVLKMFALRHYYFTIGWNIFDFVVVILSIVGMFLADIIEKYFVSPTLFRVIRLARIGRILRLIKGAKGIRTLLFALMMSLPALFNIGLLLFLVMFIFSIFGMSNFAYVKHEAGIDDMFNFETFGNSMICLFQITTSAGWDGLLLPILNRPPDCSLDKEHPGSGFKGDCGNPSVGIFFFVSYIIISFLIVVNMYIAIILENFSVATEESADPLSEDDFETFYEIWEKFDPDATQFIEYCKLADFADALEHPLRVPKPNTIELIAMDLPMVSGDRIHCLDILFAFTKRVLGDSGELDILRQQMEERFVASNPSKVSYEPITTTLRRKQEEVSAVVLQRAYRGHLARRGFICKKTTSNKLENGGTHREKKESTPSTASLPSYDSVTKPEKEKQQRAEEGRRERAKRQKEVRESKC
Kv1.1, sequence (Q09470 whole entry): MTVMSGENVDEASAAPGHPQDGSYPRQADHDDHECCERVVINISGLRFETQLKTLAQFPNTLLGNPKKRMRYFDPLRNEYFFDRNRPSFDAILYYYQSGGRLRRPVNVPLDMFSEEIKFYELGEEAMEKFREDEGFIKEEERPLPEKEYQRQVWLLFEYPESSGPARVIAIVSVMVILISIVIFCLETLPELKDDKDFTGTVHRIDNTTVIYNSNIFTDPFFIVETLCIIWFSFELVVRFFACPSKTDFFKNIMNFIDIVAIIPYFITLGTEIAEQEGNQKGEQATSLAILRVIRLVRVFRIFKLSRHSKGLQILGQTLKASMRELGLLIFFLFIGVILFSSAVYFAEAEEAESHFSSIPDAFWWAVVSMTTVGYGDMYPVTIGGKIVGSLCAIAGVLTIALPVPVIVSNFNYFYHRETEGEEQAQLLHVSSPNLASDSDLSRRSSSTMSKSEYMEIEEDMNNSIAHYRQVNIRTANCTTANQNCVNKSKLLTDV
TRPV1, sequence (O35433 whole entry): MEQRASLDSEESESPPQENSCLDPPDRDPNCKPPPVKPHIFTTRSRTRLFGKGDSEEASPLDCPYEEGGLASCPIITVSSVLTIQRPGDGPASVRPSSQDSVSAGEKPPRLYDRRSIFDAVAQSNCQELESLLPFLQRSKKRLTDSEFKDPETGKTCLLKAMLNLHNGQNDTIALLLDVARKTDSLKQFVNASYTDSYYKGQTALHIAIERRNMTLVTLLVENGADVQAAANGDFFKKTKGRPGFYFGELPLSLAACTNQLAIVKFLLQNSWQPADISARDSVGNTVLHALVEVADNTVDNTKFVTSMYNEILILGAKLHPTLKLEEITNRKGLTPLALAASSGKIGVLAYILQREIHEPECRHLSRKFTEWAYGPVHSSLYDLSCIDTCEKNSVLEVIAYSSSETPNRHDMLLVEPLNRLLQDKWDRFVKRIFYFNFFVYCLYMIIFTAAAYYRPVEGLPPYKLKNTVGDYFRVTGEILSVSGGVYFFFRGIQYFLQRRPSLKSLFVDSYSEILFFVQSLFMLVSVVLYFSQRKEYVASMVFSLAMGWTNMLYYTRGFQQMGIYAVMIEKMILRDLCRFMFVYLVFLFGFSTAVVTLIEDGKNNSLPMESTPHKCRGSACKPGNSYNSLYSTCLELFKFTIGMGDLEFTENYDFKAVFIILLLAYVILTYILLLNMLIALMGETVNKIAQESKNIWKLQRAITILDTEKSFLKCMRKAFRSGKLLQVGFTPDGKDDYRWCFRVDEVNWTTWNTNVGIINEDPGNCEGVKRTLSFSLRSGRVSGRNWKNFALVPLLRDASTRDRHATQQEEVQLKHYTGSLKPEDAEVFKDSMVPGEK

Row | Structure (SMILES) | IC50 [1] [nM] | IC50 [2] [nM] | blocking effect against TRPM8 at 5 µM ([3]; 5 µM compound) [%] | % Block TRPM8 50 µM [3] [%] | IC50 [3] [nM] | % Block TRPV1 50 µM [4] [%] | cytotoxicity in the MTT assay [5]
1 | CC(C)(C)OC(=O)N[C@@H](CCN1C(=O)CC1(Cc1ccccc1)C(=O)OCc1ccccc1)C(=O)OCc1ccccc1 (stereo partly shown) [Compound 41, 4R,S-Benzyl-4-benzyloxycarbonyl-1-[(3′S-benzyloxycarbonyl-3-tert-butoxycarbonylamino-3′-benzyloxycarbonyl)prop-1′-yl]-2-oxoazetidine] | > 1000 | > 1000 | 95 | 96.3 ± 1.6 | 420 | 38.3 ± 17.9 | did not display apparent cytotoxicity
2 | CC1C(=O)N(CC[C@H](NC(=O)OC(C)(C)C)C(=O)OCc2ccccc2)C1(Cc1ccccc1)C(=O)OCc1ccccc1 (stereo partly drawn) [Compound 45, 4R,S-Benzyl-4-benzyloxycarbonyl-1-[(3′S-benzyloxycarbonyl-3′-tert-butoxycarbonylamino)prop-1′-yl]-(3R,S)-methyl-2-oxoazetidine] | > 1000 | > 1000 |  | 100 | 800 ± 1170 | 31.8 ± 6.5 | did not display apparent cytotoxicity
